Test results published in PubChem BioAssay AID2060883 (Molecular Pharmacology Branch, DTP, NCI, 2025).
pIC50: −log10 of the molar value. “And” between values parts separate entries of the source, which are not always exact repeats. Equal values may be shown once.

System: 843782-103-R-J1-PDC complex spheroid viability
Assay: Anticancer human tumor 843782-103-R-J1-PDC patient-derived lung adenocarcinoma cell line growth inhibition [RAS]
Conditions: for pIC50: curve of first compound; for viability, T/C: stronger effect = lower value
In short: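 Tumour cells grown as complex spheroids with HUVEC endothelial cells and mesenchymal stem cells, treated with RAS pathway inhibitor combinations. Each agent spans half-log steps from near clinical Cmax, or 10 microM where Cmax is unknown.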

[1] = second compound 0.00316 µM, first compound 0.0316 µM
[2] = second compound 0.00316 µM, first compound 0.1 µM
[3] = second compound 0.00316 µM, first compound 0.316 µM
[4] = second compound 0.00316 µM, first compound 1 µM
[5] = second compound 0.00316 µM, first compound 3.16 µM
[6] = second compound 0.00316 µM, first compound 10 µM
[7] = second compound 0.01 µM, first compound 0.0316 µM
[8] = second compound 0.01 µM, first compound 0.1 µM
[9] = second compound 0.01 µM, first compound 0.316 µM
[10] = second compound 0.01 µM, first compound 1 µM
[11] = second compound 0.01 µM, first compound 3.16 µM
[12] = second compound 0.01 µM, first compound 10 µM
[13] = second compound 0.0316 µM, first compound 0.0316 µM
[14] = second compound 0.0316 µM, first compound 0.1 µM
[15] = second compound 0.0316 µM, first compound 0.316 µM
[16] = second compound 0.0316 µM, first compound 1 µM
[17] = second compound 0.0316 µM, first compound 3.16 µM
[18] = second compound 0.0316 µM, first compound 10 µM
[19] = second compound 0.1 µM, first compound 0.0316 µM
[20] = second compound 0.1 µM, first compound 0.1 µM
[21] = second compound 0.1 µM, first compound 0.316 µM
[22] = second compound 0.1 µM, first compound 1 µM
[23] = second compound 0.1 µM, first compound 3.16 µM
[24] = second compound 0.1 µM, first compound 10 µM
[25] = second compound 0.316 µM, first compound 0.0316 µM
[26] = second compound 0.316 µM, first compound 0.1 µM
[27] = second compound 0.316 µM, first compound 0.316 µM
[28] = second compound 0.316 µM, first compound 1 µM
[29] = second compound 0.316 µM, first compound 3.16 µM
[30] = second compound 0.316 µM, first compound 10 µM
[31] = second compound 1 µM, first compound 0.0316 µM
[32] = second compound 1 µM, first compound 0.1 µM
[33] = second compound 1 µM, first compound 0.316 µM
[34] = second compound 1 µM, first compound 1 µM
[35] = second compound 1 µM, first compound 3.16 µM
[36] = second compound 1 µM, first compound 10 µM
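Also: viability read after seven days of compound exposure.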

## CC(Nc1ccc2c(c1)OCCn1cc(N3C(=O)OCC3C(F)F)nc1-2)C(N)=O (configuration not stated) + C=CC(=O)N1CCN(c2nc(OCC3CCCN3C)nc3c(F)c(-c4nc(N)cc(C)c4C(F)(F)F)c(Cl)cc23)C(C)C1
Second compound 0.00316 µM
  pIC50: 6.89
Second compound 0.01 µM
  pIC50: 7.03
Second compound 0.0316 µM
  pIC50: 7.02
Second compound 0.1 µM
  pIC50: 6.88
Second compound 0.316 µM
  pIC50: 6.94
Second compound 1 µM
  pIC50: 6.93
[1]
  viability, T/C: 78.7%
[2]
  viability, T/C: 51.4%
[3]
  viability, T/C: 38%
[4]
  viability, T/C: 24.7%
[5]
  viability, T/C: 17.9%
[6]
  viability, T/C: 9.53%
[7]
  viability, T/C: 69%
[8]
  viability, T/C: 49.3%
[9]
  viability, T/C: 32.3%
[10]
  viability, T/C: 25.1%
[11]
  viability, T/C: 19.7%
[12]
  viability, T/C: 10.9%
[13]
  viability, T/C: 69.3%
[14]
  viability, T/C: 49.5%
[15]
  viability, T/C: 33.6%
[16]
  viability, T/C: 23.1%
[17]
  viability, T/C: 20.4%
[18]
  viability, T/C: 9.06%
[19]
  viability, T/C: 67.8%
[20]
  viability, T/C: 57.8%
[21]
  viability, T/C: 30%
[22]
  viability, T/C: 23.1%
[23]
  viability, T/C: 15.4%
[24]
  viability, T/C: 10.2%
[25]
  viability, T/C: 65.7%
[26]
  viability, T/C: 54.2%
[27]
  viability, T/C: 33.5%
[28]
  viability, T/C: 24.3%
[29]
  viability, T/C: 17.4%
[30]
  viability, T/C: 8.73%
[31]
  viability, T/C: 74.3%
[32]
  viability, T/C: 45.4%
[33]
  viability, T/C: 40.6%
[34]
  viability, T/C: 26.5%
[35]
  viability, T/C: 17.9%
[36]
  viability, T/C: 8.86%

## CC(=O)OC12COC1CC(O)C1(C)C(=O)C(O)C3=C(C)C(OC(=O)C(O)C(NC(=O)OC(C)(C)C)c4ccccc4)CC(O)(C(OC(=O)c4ccccc4)C21)C3(C)C (configuration not stated) + C=CC(=O)N1CCN(c2nc(OCC3CCCN3C)nc3c(F)c(-c4nc(N)cc(C)c4C(F)(F)F)c(Cl)cc23)C(C)C1
Second compound 0.00316 µM
  pIC50: > 7.50
Second compound 0.01 µM
  pIC50: > 7.50
Second compound 0.0316 µM
  pIC50: > 7.50
Second compound 0.1 µM
  pIC50: > 7.50
Second compound 0.316 µM
  pIC50: > 7.50
Second compound 1 µM
  pIC50: > 7.50
[1]
  viability, T/C: 3.83%
[2]
  viability, T/C: 3.97%
[3]
  viability, T/C: 4.72%
[4]
  viability, T/C: 5.04%
[5]
  viability, T/C: 6.7%
[6]
  viability, T/C: 7.46%
[7]
  viability, T/C: 3.55%
[8]
  viability, T/C: 5.26%
[9]
  viability, T/C: 5.77%
[10]
  viability, T/C: 5.45%
[11]
  viability, T/C: 4.97%
[12]
  viability, T/C: 8.21%
[13]
  viability, T/C: 4.29%
[14]
  viability, T/C: 4.99%
[15]
  viability, T/C: 5.82%
[16]
  viability, T/C: 4.83%
[17]
  viability, T/C: 5.52%
[18]
  viability, T/C: 6.14%
[19]
  viability, T/C: 4.07%
[20]
  viability, T/C: 4.89%
[21]
  viability, T/C: 5.53%
[22]
  viability, T/C: 6.37%
[23]
  viability, T/C: 3.49%
[24]
  viability, T/C: 6.77%
[25]
  viability, T/C: 3.97%
[26]
  viability, T/C: 3.89%
[27]
  viability, T/C: 3.73%
[28]
  viability, T/C: 5.43%
[29]
  viability, T/C: 5.26%
[30]
  viability, T/C: 7.59%
[31]
  viability, T/C: 4.07%
[32]
  viability, T/C: 3.8%
[33]
  viability, T/C: 4.24%
[34]
  viability, T/C: 3.62%
[35]
  viability, T/C: 4.03%
[36]
  viability, T/C: 7.53%

## CCc1c2c(nc3ccc(O)cc13)-c1cc3c(c(=O)n1C2)COC(=O)[C@]3(O)CC + C#Cc1c(F)ccc2cc(O)cc(-c3ncc4c(N5CC6CCC(C5)N6)nc(OCC56CCCN5CC(F)C6)nc4c3F)c12
Second compound 0.0316 µM
  pIC50: 8.72
Second compound 0.1 µM
  pIC50: 8.70
Second compound 0.316 µM
  pIC50: 8.71
Second compound 1 µM
  pIC50: 8.72
Second compound 3.16 µM
  pIC50: 8.79
Second compound 10 µM
  pIC50: > 9.02
Second compound 0.0316 µM, first compound 0.000949 µM
  viability, T/C: 103%
Second compound 0.0316 µM, first compound 0.003 µM
  viability, T/C: 15.3%
Second compound 0.0316 µM, first compound 0.00949 µM
  viability, T/C: 8.79%
Second compound 0.0316 µM, first compound 0.03 µM
  viability, T/C: 2.87%
Second compound 0.0316 µM, first compound 0.0949 µM
  viability, T/C: 1.58%
Second compound 0.0316 µM, first compound 0.3 µM
  viability, T/C: 0.53%
Second compound 0.1 µM, first compound 0.000949 µM
  viability, T/C: 104%
Second compound 0.1 µM, first compound 0.003 µM
  viability, T/C: 19.6%
Second compound 0.1 µM, first compound 0.00949 µM
  viability, T/C: 8.39%
Second compound 0.1 µM, first compound 0.03 µM
  viability, T/C: 4.21%
Second compound 0.1 µM, first compound 0.0949 µM
  viability, T/C: 1.08%
Second compound 0.1 µM, first compound 0.3 µM
  viability, T/C: 0.68%
Second compound 0.316 µM, first compound 0.000949 µM
  viability, T/C: 96.8%
Second compound 0.316 µM, first compound 0.003 µM
  viability, T/C: 20.8%
Second compound 0.316 µM, first compound 0.00949 µM
  viability, T/C: 8.99%
Second compound 0.316 µM, first compound 0.03 µM
  viability, T/C: 3.62%
Second compound 0.316 µM, first compound 0.0949 µM
  viability, T/C: 1.15%
Second compound 0.316 µM, first compound 0.3 µM
  viability, T/C: 0.74%
Second compound 1 µM, first compound 0.000949 µM
  viability, T/C: 85.5%
Second compound 1 µM, first compound 0.003 µM
  viability, T/C: 26.8%
Second compound 1 µM, first compound 0.00949 µM
  viability, T/C: 7.99%
Second compound 1 µM, first compound 0.03 µM
  viability, T/C: 3.68%
Second compound 1 µM, first compound 0.0949 µM
  viability, T/C: 1.44%
Second compound 1 µM, first compound 0.3 µM
  viability, T/C: 0.87%
Second compound 3.16 µM, first compound 0.000949 µM
  viability, T/C: 73.4%
Second compound 3.16 µM, first compound 0.003 µM
  viability, T/C: 21.8%
Second compound 3.16 µM, first compound 0.00949 µM
  viability, T/C: 10.4%
Second compound 3.16 µM, first compound 0.03 µM
  viability, T/C: 4.24%
Second compound 3.16 µM, first compound 0.0949 µM
  viability, T/C: 1.56%
Second compound 3.16 µM, first compound 0.3 µM
  viability, T/C: 0.77%
Second compound 10 µM, first compound 0.000949 µM
  viability, T/C: 42.2%
Second compound 10 µM, first compound 0.003 µM
  viability, T/C: 12.1%
Second compound 10 µM, first compound 0.00949 µM
  viability, T/C: 9.81%
Second compound 10 µM, first compound 0.03 µM
  viability, T/C: 3.11%
Second compound 10 µM, first compound 0.0949 µM
  viability, T/C: 1.08%
Second compound 10 µM, first compound 0.3 µM
  viability, T/C: 0.39%

## O=C(c1ccc(F)c(F)c1Nc1ccc(I)cc1F)N1CC(O)([C@@H]2CCCCN2)C1
Compound 0.00316 µM
  viability, T/C: 99.8% and 99.4% and 102% (2×)
Compound 0.01 µM
  viability, T/C: 93.1% [middle of 4 runs]
Compound 0.316 µM
  viability, T/C: 48.7% [middle of 4 runs]
Compound 1 µM
  viability, T/C: 27.1% [middle of 4 runs]

## CC(Nc1ccc2c(c1)OCCn1cc(N3C(=O)OCC3C(F)F)nc1-2)C(N)=O (configuration not stated)
Compound 0.0316 µM
  viability, T/C: 95.9% [middle of 4 runs]
Compound 0.316 µM
  viability, T/C: 50.3% [middle of 4 runs]
Compound 1 µM
  viability, T/C: 38.3% [middle of 4 runs]
Compound 3.16 µM
  viability, T/C: 26.1% [middle of 4 runs]
Compound 10 µM
  viability, T/C: 16.3% [middle of 4 runs]

## CC(C)NCC(C(=O)N1CCN(c2ncnc3c2C(C)CC3O)CC1)c1ccc(Cl)cc1 (configuration not stated) + C=CC(=O)N1CCN(c2nc(OCC3CCCN3C)nc3c(F)c(-c4nc(N)cc(C)c4C(F)(F)F)c(Cl)cc23)C(C)C1
Second compound 0.00316 µM
  pIC50: 6.14
Second compound 0.01 µM
  pIC50: 6.15
Second compound 0.0316 µM
  pIC50: 6.17
Second compound 0.1 µM
  pIC50: 6.17
Second compound 0.316 µM
  pIC50: 6.19
Second compound 1 µM
  pIC50: 6.06
[1]
  viability, T/C: 91.6%
[2]
  viability, T/C: 81.3%
[3]
  viability, T/C: 70%
[4]
  viability, T/C: 42.9%
[5]
  viability, T/C: 18.8%
[6]
  viability, T/C: 8.64%
[7]
  viability, T/C: 88.5%
[8]
  viability, T/C: 85.1%
[9]
  viability, T/C: 75.1%
[10]
  viability, T/C: 38.3%
[11]
  viability, T/C: 19.2%
[12]
  viability, T/C: 8.6%
[13]
  viability, T/C: 89%
[14]
  viability, T/C: 81.2%
[15]
  viability, T/C: 70.6%
[16]
  viability, T/C: 38.8%
[17]
  viability, T/C: 17.3%
[18]
  viability, T/C: 6.65%
[19]
  viability, T/C: 91.5%
[20]
  viability, T/C: 77.9%
[21]
  viability, T/C: 65.4%
[22]
  viability, T/C: 44.7%
[23]
  viability, T/C: 17.2%
[24]
  viability, T/C: 8.54%
[25]
  viability, T/C: 91.5%
[26]
  viability, T/C: 79.7%
[27]
  viability, T/C: 67.2%
[28]
  viability, T/C: 40.1%
[29]
  viability, T/C: 18.2%
[30]
  viability, T/C: 8.75%
[31]
  viability, T/C: 89.2%
[32]
  viability, T/C: 74.2%
[33]
  viability, T/C: 72.2%
[34]
  viability, T/C: 47.9%
[35]
  viability, T/C: 20.7%
[36]
  viability, T/C: 7.97%
